Test results from US12077503B2, “Substituted cyclic amides and their use as herbicides” (FMC CORPORATION, priority 2015, dated 2024).

How the values were obtained:
Format in all cases: in vivo
[1] = test system: barnyardgrass (Echinochloa crus-galli); test: Test G Pre-Emergence Protocol; settings: Echinochloa crus-galli, pre-emergence, 312 h, evaluated after 13 days; for pest or weed control at 15.625 g/ha: 15.625 g ai/ha; for pest or weed control at 15.625 g/ha / pest or weed control at 250 g/ha: read-out: Barnyardgrass damage rating (100=total damage to plant; 0=no damage to plant); for pest or weed control at 62.5 g/ha: 62.5 g ai/ha, 100=total damage to plant, 0=no damage to plant, read-out: Barnyardgrass damage rating; for pest or weed control at 250 g/ha: 250 g ai/ha
In short: (§1)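 Spraying took place one day after sowing, at 15.625, 62.5 or 250 g/ha, using an acetone/water (50:50) spray solution containing 0.5% Tween 20. Plants were kept under glasshouse conditions (24/16 °C, 14 h light, 65% humidity, watered twice daily), and injury was rated 0–100 at day 13.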

corn (Zea mays) [2] = test: Test G Pre-Emergence Protocol; settings: Zea mays, pre-emergence, 312 h, evaluated after 13 days; for plant injury at 15.625 g/ha: 15.625 g ai/ha; for plant injury at 15.625 g/ha / plant injury at 250 g/ha: read-out: Corn damage rating (100=total damage to plant; 0=no damage to plant); for plant injury at 62.5 g/ha: 62.5 g ai/ha, 100=total damage to plant, 0=no damage to plant, read-out: Corn damage rating; for plant injury at 250 g/ha: 250 g ai/ha
In short: as §1

[3] = test system: giant foxtail (Setaria faberi); test: Test G Pre-Emergence Protocol; settings: Setaria faberi, pre-emergence, 312 h, evaluated after 13 days; for pest or weed control at 15.625 g/ha: 15.625 g ai/ha; for pest or weed control at 15.625 g/ha / pest or weed control at 250 g/ha: read-out: Foxtail, Giant damage rating (100=total damage to plant; 0=no damage to plant); for pest or weed control at 62.5 g/ha: 62.5 g ai/ha, 100=total damage to plant, 0=no damage to plant, read-out: Foxtail, Giant damage rating; for pest or weed control at 250 g/ha: 250 g ai/ha
In short: as §1

[4] = test system: ivy-leaved morning glory (Ipomoea hederacea); test: Test G Pre-Emergence Protocol; settings: Ipomoea, pre-emergence, 312 h, evaluated after 13 days; for pest or weed control at 15.625 g/ha: 15.625 g ai/ha; for pest or weed control at 15.625 g/ha / pest or weed control at 250 g/ha: read-out: Morningglory, Ivy-leaved damage rating (100=total damage to plant; 0=no damage to plant); for pest or weed control at 62.5 g/ha: 62.5 g ai/ha, 100=total damage to plant, 0=no damage to plant, read-out: Morningglory, Ivy-leaved damage rating; for pest or weed control at 250 g/ha: 250 g ai/ha
In short: as §1

[5] = test system: redroot pigweed (Amaranthus retroflexus); test: Test G Pre-Emergence Protocol; settings: Amaranthus retroflexus, pre-emergence, 312 h, evaluated after 13 days; for pest or weed control at 15.625 g/ha: 15.625 g ai/ha; for pest or weed control at 15.625 g/ha / pest or weed control at 250 g/ha: read-out: Pigweed, Redroot damage rating (100=total damage to plant; 0=no damage to plant); for pest or weed control at 62.5 g/ha: 62.5 g ai/ha, 100=total damage to plant, 0=no damage to plant, read-out: Pigweed, Redroot damage rating; for pest or weed control at 250 g/ha: 250 g ai/ha
In short: as §1

[6] = test system: velvetleaf (Abutilon theophrasti); test: Test G Pre-Emergence Protocol; settings: Abutilon theophrasti, pre-emergence, 312 h, evaluated after 13 days; for pest or weed control at 15.625 g/ha: 15.625 g ai/ha; for pest or weed control at 15.625 g/ha / pest or weed control at 250 g/ha: read-out: Velvetleaf damage rating (100=total damage to plant; 0=no damage to plant); for pest or weed control at 62.5 g/ha: 62.5 g ai/ha, 100=total damage to plant, 0=no damage to plant, read-out: Velvetleaf damage rating; for pest or weed control at 250 g/ha: 250 g ai/ha
In short: as §1

[7] = test system: barnyardgrass (Echinochloa crus-galli); test: Test G Post-Emergence Protocol; settings: Echinochloa crus-galli, post-emergence, 312 h, read-out: Barnyardgrass damage rating; for pest or weed control at 15.625 g/ha: 15.625 g ai/ha, evaluated after 13 days (100=total damage to plant; 0=no damage to plant); for pest or weed control at 62.5 g/ha: 62.5 g ai/ha; for pest or weed control at 62.5 g/ha / pest or weed control at 250 g/ha: evaluated after 13 days, 100=total damage to plant, 0=no damage to plant; for pest or weed control at 250 g/ha: 250 g ai/ha
In short: (§2)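 Damage was rated 13 days after treatment from 0 (none) to 100 (plant killed). Compound was applied as a spray at 15.625, 62.5 or 250 g/ha in 50:50 acetone/water containing 0.5% Tween 20, onto 8-day-old potted plants kept in a glasshouse (24/16 °C, 14 h light, 65% humidity).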

corn (Zea mays) [8] = test: Test G Post-Emergence Protocol; settings: Zea mays, post-emergence, 312 h, read-out: Corn damage rating; for plant injury at 15.625 g/ha: 15.625 g ai/ha, evaluated after 13 days (100=total damage to plant; 0=no damage to plant); for plant injury at 62.5 g/ha: 62.5 g ai/ha; for plant injury at 62.5 g/ha / plant injury at 250 g/ha: evaluated after 13 days, 100=total damage to plant, 0=no damage to plant; for plant injury at 250 g/ha: 250 g ai/ha
In short: as §2

[9] = test system: giant foxtail (Setaria faberi); test: Test G Post-Emergence Protocol; settings: Setaria faberi, post-emergence, 312 h, read-out: Foxtail, Giant damage rating; for pest or weed control at 15.625 g/ha: 15.625 g ai/ha, evaluated after 13 days (100=total damage to plant; 0=no damage to plant); for pest or weed control at 62.5 g/ha: 62.5 g ai/ha; for pest or weed control at 62.5 g/ha / pest or weed control at 250 g/ha: evaluated after 13 days, 100=total damage to plant, 0=no damage to plant; for pest or weed control at 250 g/ha: 250 g ai/ha
In short: as §2

[10] = test system: ivy-leaved morning glory (Ipomoea hederacea); test: Test G Post-Emergence Protocol; settings: Ipomoea, post-emergence, 312 h, read-out: Morningglory, Ivy-leaved damage rating; for pest or weed control at 15.625 g/ha: 15.625 g ai/ha, evaluated after 13 days (100=total damage to plant; 0=no damage to plant); for pest or weed control at 62.5 g/ha: 62.5 g ai/ha; for pest or weed control at 62.5 g/ha / pest or weed control at 250 g/ha: evaluated after 13 days, 100=total damage to plant, 0=no damage to plant; for pest or weed control at 250 g/ha: 250 g ai/ha
In short: as §2

[11] = test system: redroot pigweed (Amaranthus retroflexus); test: Test G Post-Emergence Protocol; settings: Amaranthus retroflexus, post-emergence, 312 h, read-out: Pigweed, Redroot damage rating; for pest or weed control at 15.625 g/ha: 15.625 g ai/ha, evaluated after 13 days (100=total damage to plant; 0=no damage to plant); for pest or weed control at 62.5 g/ha: 62.5 g ai/ha; for pest or weed control at 62.5 g/ha / pest or weed control at 250 g/ha: evaluated after 13 days, 100=total damage to plant, 0=no damage to plant; for pest or weed control at 250 g/ha: 250 g ai/ha
In short: as §2

[12] = test system: velvetleaf (Abutilon theophrasti); test: Test G Post-Emergence Protocol; settings: Abutilon theophrasti, post-emergence, 312 h, read-out: Velvetleaf damage rating; for pest or weed control at 15.625 g/ha: 15.625 g ai/ha, evaluated after 13 days (100=total damage to plant; 0=no damage to plant); for pest or weed control at 62.5 g/ha: 62.5 g ai/ha; for pest or weed control at 62.5 g/ha / pest or weed control at 250 g/ha: evaluated after 13 days, 100=total damage to plant, 0=no damage to plant; for pest or weed control at 250 g/ha: 250 g ai/ha
In short: as §2

SMILES | pest or weed control at 15.625 g/ha [1] [%] | pest or weed control at 62.5 g/ha [1] [%] | pest or weed control at 250 g/ha [1] [%] | plant injury at 15.625 g/ha (corn (Zea mays) [2]) [%] | plant injury at 62.5 g/ha (corn (Zea mays) [2]) [%] | plant injury at 250 g/ha (corn (Zea mays) [2]) [%] | pest or weed control at 15.625 g/ha [3] [%] | pest or weed control at 62.5 g/ha [3] [%] | pest or weed control at 250 g/ha [3] [%] | pest or weed control at 15.625 g/ha [4] [%] | pest or weed control at 62.5 g/ha [4] [%] | pest or weed control at 250 g/ha [4] [%] | pest or weed control at 15.625 g/ha [5] [%] | pest or weed control at 62.5 g/ha [5] [%] | pest or weed control at 250 g/ha [5] [%] | pest or weed control at 15.625 g/ha [6] [%] | pest or weed control at 62.5 g/ha [6] [%] | pest or weed control at 250 g/ha [6] [%] | pest or weed control at 15.625 g/ha [7] [%] | pest or weed control at 62.5 g/ha [7] [%] | other results
CN1C[C@H](c2ccc(C#N)c(C(F)(F)F)c2)[C@@H](C(=O)Nc2ccccc2S(C)(=O)=O)C1=O (racemic) [Compound 1796] | 0 | 0 | 0 | 0 | 0 | 0 | 0 | 0 | 0 | 0 | 0 | 0 | 0 | 0 | 20 | 0 | 0 | 10 | 0 | 0 | pest or weed control at 250 g/ha [7]: 0%; plant injury at 15.625 g/ha (corn (Zea mays) [8]): 0%; plant injury at 62.5 g/ha (corn (Zea mays) [8]): 0%; plant injury at 250 g/ha (corn (Zea mays) [8]): 0%; pest or weed control at 15.625 g/ha [9]: 0%; pest or weed control at 62.5 g/ha [9]: 0%; pest or weed control at 250 g/ha [9]: 0%; pest or weed control at 15.625 g/ha [10]: 0%; pest or weed control at 62.5 g/ha [10]: 10%; pest or weed control at 250 g/ha [10]: 10%; pest or weed control at 15.625 g/ha [11]: 0%; pest or weed control at 62.5 g/ha [11]: 10%; pest or weed control at 250 g/ha [11]: 20%; pest or weed control at 15.625 g/ha [12]: 0%; pest or weed control at 62.5 g/ha [12]: 0%; pest or weed control at 250 g/ha [12]: 0%
CN1C[C@H](c2cccc(C(F)F)c2)[C@@H](C(=O)Nc2ccccc2S(C)(=O)=O)C1=O (racemic) [Compound 1800] | 10 | 40 | 80 | 0 | 0 | 0 | 20 | 70 | 90 | 0 | 0 | 0 | 10 | 20 | 10 | 0 | 10 | 0 | 0 | 10 | pest or weed control at 250 g/ha [7]: 80%; plant injury at 15.625 g/ha (corn (Zea mays) [8]): 0%; plant injury at 62.5 g/ha (corn (Zea mays) [8]): 0%; plant injury at 250 g/ha (corn (Zea mays) [8]): 0%; pest or weed control at 15.625 g/ha [9]: 0%; pest or weed control at 62.5 g/ha [9]: 20%; pest or weed control at 250 g/ha [9]: 70%; pest or weed control at 15.625 g/ha [10]: 0%; pest or weed control at 62.5 g/ha [10]: 10%; pest or weed control at 250 g/ha [10]: 20%; pest or weed control at 15.625 g/ha [11]: 0%; pest or weed control at 62.5 g/ha [11]: 10%; pest or weed control at 250 g/ha [11]: 10%; pest or weed control at 15.625 g/ha [12]: 0%; pest or weed control at 62.5 g/ha [12]: 0%; pest or weed control at 250 g/ha [12]: 0%
